Experimental data: US20230339970A1, “CASEIN KINASE 1 DELTA MODULATORS” (priority 2020, published 2023)
Where two headings read alike, the source gives them in different places.

Experiments:
[1] = including conditioned place preference with cocaine and alcohol reinstatement; cited from earlier work
circadian rhythms [2] = details: in vivo locomotor activity of a variety of species; cited from earlier work
circadian rhythms [3] = details: cellular reporter assays; cited from earlier work
[4] = ob/ob and diet-induced obese mouse, daily administration; cited from earlier work
[5] = biological target: T1, human recombinant GST cleaved CSNK1D (Homo sapiens, UniProt P48730); assay: Purified Enzyme Assay (ADP-Glo CSNK1D Kinase Assay); assay type: biochemical; details: 2 nM CSNK1D; peptide substrate 150 μM; ATP 20 μM; 45 minutes at room temperature
T1 construct: GST (cleaved yes); purchased University of Dundee clone DU 19064
In short: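 GST-cleaved human recombinant CSNK1D phosphorylates peptide PLSRTL-pS-VASLPGL with ATP; compounds added in dose-response, 45 min at room temperature. ADP formed measured by ADP-Glo luminescence and converted to percent activity.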

human CSNK1D = biological target: T2, human CSNK1D (Homo sapiens, UniProt P48730); assay: Whole Cell nBRET CSNK1D Binding Assay; details: living CHO cells stably expressing human CSNK1D tagged with nanoluciferase; NanoBret tracer 130 nM; 2 hours at 37 C
T2 construct: expressed in transfected cells
T2 sequence (P48730 whole entry): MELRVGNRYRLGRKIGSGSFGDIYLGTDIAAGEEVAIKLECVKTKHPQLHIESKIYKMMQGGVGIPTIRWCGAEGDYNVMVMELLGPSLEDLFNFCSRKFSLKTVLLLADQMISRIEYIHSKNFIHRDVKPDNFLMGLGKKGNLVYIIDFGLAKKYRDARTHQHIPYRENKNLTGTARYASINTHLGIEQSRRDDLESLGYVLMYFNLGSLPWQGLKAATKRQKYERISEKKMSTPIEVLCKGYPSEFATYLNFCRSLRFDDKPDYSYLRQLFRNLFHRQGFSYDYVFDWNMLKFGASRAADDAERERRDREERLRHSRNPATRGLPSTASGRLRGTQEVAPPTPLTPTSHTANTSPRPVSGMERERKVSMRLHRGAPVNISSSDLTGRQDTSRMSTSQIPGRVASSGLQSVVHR

T1 sequence (P48730 whole entry): as above

| IC50 [5] [nM] | IC50 (human CSNK1D) [nM] | SMILES | efficacy in addiction/substance abuse models [1] | effect on circadian rhythms (circadian rhythms [2]) | effect on circadian rhythms (circadian rhythms [3]) | glucose tolerance [4] |
| --- | --- | --- | --- | --- | --- | --- |
| – | – | Nc1nccc(-c2c(-c3ccc(F)cc3)ncn2C2CCCCC2)n1 [PF-670462] | shown efficacy | significantly lengthened circadian rhythms | significantly lengthened circadian rhythms | – |
| – | – | Nc1nccc(-c2c(-c3ccc(F)cc3)ncn2C2CCN(Cc3ccon3)CC2)n1 [PF-5006739] | – | significantly lengthened circadian rhythms | significantly lengthened circadian rhythms | improve glucose tolerance |
| 2 | 18 | CC1(CF)CCc2c(-c3c(F)cnc4[nH]ncc34)c(-c3ccc(F)cn3)nn2C1 (single isomer, unassigned) [Example 293, (*S)-5-Fluoro-4-[6-(fluoromethyl)-2-(5-fluoro-2-pyridyl)-6-methyl-5,7-dihydro-4H-pyrazolo[1,5-a]pyridin-3-yl]-1H-pyrazolo[3,4-b]pyridine] | – | – | – | – |
| 1 | 20 | Cc1cc(-c2c(-c3ccc(F)cn3)nn3c2OCC2(CC2)C3)c2cn[nH]c2n1 [Example 462, 2′-(5-Fluoropyridin-2-yl)-3′-(6-methyl-1H-pyrazolo[3,4-b]pyridin-4-yl)-5′H,7′H-spiro[cyclopropane-1,6′-pyrazolo[5,1-b][1,3]oxazine]] | – | – | – | – |
| 17 | 87 | [2H]C([2H])([2H])[C@@]1(C(F)(F)F)Cn2nc(-c3ccc(F)cn3)c(-c3ccnc4[nH]nc(C)c34)c2CO1 (single isomer, unassigned) [Example 426, (*S)-2-(5-Fluoropyridin-2-yl)-6-(methyl-d3)-3-(3-methyl-1H-pyrazolo[3,4-b]pyridin-4-yl)-6-(trifluoromethyl)-6,7-dihydro-4H-pyrazolo[5,1-c][1,4]oxazine] | – | – | – | – |
| 4 | 34 | COC[C@]1(F)CCc2c(-c3cc(C)nc4[nH]ncc34)c(-c3ccc(F)cn3)nn2C1 (single isomer, unassigned) [Example 304, (*S)-4-[6-Fluoro-2-(5-fluoro-2-pyridyl)-6-(methoxymethyl)-5,7-dihydro-4H-pyrazolo[1,5-a]pyridin-3-yl]-6-methyl-1H-pyrazolo[3,4-b]pyridine] | – | – | – | – |
| 49 | 672 | Fc1ccc(-c2nn3c(c2-c2ccnc4[nH]ncc24)C[C@H]2C[C@H]23)nc1 [Example 25, (4aR,5aR)-2-(5-Fluoropyridin-2-yl)-3-(1H-pyrazolo[3,4-b]pyridin-4-yl)-4,4a,5,5a-tetrahydrocyclopropa[4,5]pyrrolo[1,2-b]pyrazole] | – | – | – | – |
| 10 | 93 | CC1(C)Cn2nc(-c3ccc(F)cn3)c(-c3cc(N)n4nccc4c3)c2CO1 [Example 380, 5-[2-(5-Fluoro-2-pyridyl)-6,6-dimethyl-4,7-dihydropyrazolo[5,1-c][1,4]oxazin-3-yl]pyrazolo[1,5-a]pyridin-7-amine] | – | – | – | – |
| 6 | 75 | CCC(=O)Nc1cc(-c2c(-c3ccc(F)cn3)nn3c2OCCC3)ccn1 [Example 439, N-(4-(2-(5-Fluoropyridin-2-yl)-6,7-dihydro-5H-pyrazolo[5,1-b][1,3]oxazin-3-yl)pyridin-2-yl)propionamide] | – | – | – | – |
| 9 | 137 | Fc1ccc(-c2nn3c(c2-c2ccnc4[nH]ncc24)COCC32CC2)cc1 [Example 106, 2′-(4-Fluorophenyl)-3′-(1H-pyrazolo[3,4-b]pyridin-4-yl)-4′H,6′H-spiro[cyclopropane-1,7′-pyrazolo[5,1-c][1,4]oxazine]] | – | – | – | – |
| 38 | 926 | C[C@H]1OCc2c(-c3ccnc4[nH]ncc34)c(-c3ccc(F)cn3)nn2[C@H]1C (single isomer, unassigned) [Example 116, (6*R,7*S)-2-(5-Fluoropyridin-2-yl)-6,7-dimethyl-3-(1H-pyrazolo[3,4-b]pyridin-4-yl)-6,7-dihydro-4H-pyrazolo[5,1-c][1,4]oxazine] | – | – | – | – |
| 28 | 762 | Cc1cc(-c2c(-c3nccs3)nn3c2CCCC3)c2cn[nH]c2n1 [Example 30, 2-(3-(6-Methyl-1H-pyrazolo[3,4-b]pyridin-4-yl)-4,5,6,7-tetrahydropyrazolo[1,5-a]pyridin-2-yl)thiazole] | – | – | – | – |
| 2 | 6 | Cc1n[nH]c2nccc(-c3c(-c4ccc(F)cc4)nn4c3OCC3(C4)CC3(F)F)c12 (single isomer, unassigned) [Example 473, (*R)-2,2-Difluoro-2′-(4-fluorophenyl)-3′-(3-methyl-1H-pyrazolo[3,4-b]pyridin-4-yl)-5′H,7′H-spiro[cyclopropane-1,6′-pyrazolo[5,1-b][1,3]oxazine]] | – | – | – | – |
| 3 | 15 | Cc1cc(-c2c(-c3ccc(F)cn3)nn3c2CO[C@](C)(C(F)(F)F)C3)c2cn[nH]c2n1 (single isomer, unassigned) [Example 179, (*S)-2-(5-Fluoropyridin-2-yl)-6-methyl-3-(6-methyl-1H-pyrazolo[3,4-b]pyridin-4-yl)-6-(trifluoromethyl)-6,7-dihydro-4H-pyrazolo[5,1-c][1,4]oxazine] | – | – | – | – |
| 23 | 163 | Fc1ccc(-c2nn3c(c2-c2c(F)cnc4[nH]ncc24)CC[C@@]2(C3)CC2(F)F)nc1 (single isomer, unassigned) [Example 329, (*S)-2,2-Difluoro-3′-(5-fluoro-1H-pyrazolo[3,4-b]pyridin-4-yl)-2′-(5-fluoropyridin-2-yl)-4′,5′-dihydro-7′H-spiro[cyclopropane-1,6′-pyrazolo[1,5-a]pyridine]] | – | – | – | – |
| 41 | 434 | Cc1cc(-c2c(-c3ccc(F)cn3)nn3c2C[C@H]2C[C@H]23)c2cn[nH]c2n1 [Example 27, (4aR,5aR)-2-(5-Fluoropyridin-2-yl)-3-(6-methyl-1H-pyrazolo[3,4-b]pyridin-4-yl)-4,4a,5,5a-tetrahydrocyclopropa[4,5]pyrrolo[1,2-b]pyrazole] | – | – | – | – |
| 9 | 72 | Cc1cc(-c2c(-c3ccc(F)cc3)nn3c2COCC32CC2)c2cn[nH]c2n1 [Example 107, 2′-(4-Fluorophenyl)-3′-(6-methyl-1H-pyrazolo[3,4-b]pyridin-4-yl)-4′H,6′H-spiro[cyclopropane-1,7-pyrazolo[5,1-c][1,4]oxazine]] | – | – | – | – |
